Laboratory results as given in the NIST ThermoML archive (doi:10.1021/je800571y).

Experiment: xn = mol fraction of the nth substance listed
Conditions: 101 kPa, Liquid

CCC(C)=O [butanone] + CCC(C)O
Conditions | mass density, 293.15 K [kg/m3] | mass density, 298.15 K [kg/m3] | mass density, 303.15 K [kg/m3] | mass density, 308.15 K [kg/m3] | mass density, 313.15 K [kg/m3] | viscosity, 293.15 K [mPa·s] | viscosity, 298.15 K [mPa·s] | viscosity, 303.15 K [mPa·s] | viscosity, 308.15 K [mPa·s] | viscosity, 313.15 K [mPa·s]
x1 = 0.0684 | 806.36 | 802.16 | 798.67 | 793.88 | 789.68 | 2.91 | 2.429 | 2.037 | 1.692 | 1.499
x1 = 0.1365 | 806.25 | 801.98 | 798.39 | 793.58 | 789.29 | 2.34 | 2.007 | 1.649 | 1.339 | 1.228
x1 = 0.2044 | 806.14 | 801.79 | 798.1 | 793.28 | 788.9 | 1.87 | 1.613 | 1.352 | 1.054 | 1.003
x1 = 0.2721 | 806.03 | 801.61 | 797.82 | 792.98 | 788.51 | 1.491 | 1.299 | 1.074 | 0.8161 | 0.8187
x1 = 0.3395 | 805.92 | 801.43 | 797.54 | 792.68 | 788.13 | 1.183 | 1.051 | 0.8484 | 0.6282 | 0.6806
x1 = 0.4066 | 805.81 | 801.25 | 797.26 | 792.39 | 787.74 | 0.9558 | 0.8537 | 0.6826 | 0.5076 | 0.5709
x1 = 0.4735 | 805.71 | 801.07 | 796.98 | 792.09 | 787.36 | 0.7693 | 0.687 | 0.5613 | 0.4126 | 0.4786
x1 = 0.5402 | 805.61 | 800.9 | 796.71 | 791.8 | 786.97 | 0.6236 | 0.56 | 0.4526 | 0.3601 | 0.4206
x1 = 0.6066 | 805.5 | 800.72 | 796.43 | 791.51 | 786.59 | 0.5287 | 0.48 | 0.3944 | 0.326 | 0.3681
x1 = 0.6727 | 805.4 | 800.55 | 796.16 | 791.22 | 786.21 | 0.4645 | 0.4282 | 0.3468 | 0.3051 | 0.3429
x1 = 0.7387 | 805.3 | 800.38 | 795.89 | 790.93 | 785.83 | 0.4412 | 0.3922 | 0.3077 | 0.309 | 0.3191
x1 = 0.8044 | 805.21 | 800.1 | 795.62 | 790.64 | 785.45 | 0.4486 | 0.362 | 0.3031 | 0.3112 | 0.2915
x1 = 0.8698 | 805.11 | 800.04 | 795.35 | 790.35 | 785.07 | 0.4468 | 0.3482 | 0.3071 | 0.3186 | 0.2805
x1 = 0.935 | 805.01 | 799.87 | 795.08 | 790.06 | 784.7 | 0.42 | 0.3 | 0.2786 | 0.2966 | 0.2718
x1 = 1 | 804.92 | 799.7 | 794.81 | 789.78 | 784.32 | 0.3956 | 0.2828 | 0.2666 | 0.2601 | 0.2545

CCC(C)=O [butanone] + CC(C)O
Conditions | mass density, 293.15 K [kg/m3] | mass density, 298.15 K [kg/m3] | mass density, 303.15 K [kg/m3] | mass density, 308.15 K [kg/m3] | mass density, 313.15 K [kg/m3] | viscosity, 293.15 K [mPa·s] | viscosity, 298.15 K [mPa·s] | viscosity, 303.15 K [mPa·s] | viscosity, 308.15 K [mPa·s] | viscosity, 313.15 K [mPa·s]
x1 = 0.0562 | 786.4 | 782.34 | 778.9 | 773.52 | 769.21 | – | – | – | – | –
x1 = 0.0595 | – | – | – | – | – | 1.816 | 1.596 | 1.413 | 1.272 | 1.165
x1 = 0.1136 | 787.47 | 783.31 | 779.85 | 774.58 | 770.17 | – | – | – | – | –
x1 = 0.1282 | – | – | – | – | – | 1.504 | 1.362 | 1.207 | 1.095 | 1.003
x1 = 0.1724 | 788.54 | 784.36 | 780.81 | 775.58 | 771.13 | 1.294 | 1.185 | 1.046 | 0.9637 | 0.8693
x1 = 0.2326 | 789.67 | 785.46 | 781.82 | 776.64 | 772.12 | 1.103 | 0.9992 | 0.9083 | 0.8366 | 0.774
x1 = 0.2941 | 790.83 | 786.59 | 782.85 | 777.7 | 773.13 | 0.9668 | 0.8812 | 0.8021 | 0.7488 | 0.6929
x1 = 0.3571 | 792.05 | 787.74 | 783.91 | 778.8 | 774.16 | – | – | – | – | –
x1 = 0.3572 | – | – | – | – | – | 0.852 | 0.7675 | 0.7154 | 0.6663 | 0.6169
x1 = 0.4217 | 793.29 | 788.95 | 785.01 | 779.92 | 775.21 | 0.7693 | 0.6949 | 0.6406 | 0.5987 | 0.5567
x1 = 0.4878 | 794.6 | 790.18 | 786.14 | 781.07 | 776.27 | 0.7113 | 0.6289 | 0.5816 | 0.5428 | 0.4753
x1 = 0.5555 | 795.96 | 791.44 | 787.29 | 782.24 | 777.37 | – | – | – | – | –
x1 = 0.5556 | – | – | – | – | – | 0.6609 | 0.5801 | 0.5303 | 0.4834 | 0.4406
x1 = 0.625 | 797.35 | 792.74 | 788.49 | 783.44 | 778.48 | 0.6072 | 0.5071 | 0.4848 | 0.4314 | 0.3846
x1 = 0.6962 | 798.79 | 794.08 | 789.7 | 784.66 | 779.61 | 0.5511 | 0.4516 | 0.4355 | 0.3751 | 0.3302
x1 = 0.7692 | 800.26 | 795.45 | 790.95 | 785.91 | 780.76 | – | – | – | – | –
x1 = 0.7693 | – | – | – | – | – | 0.5144 | 0.3852 | 0.3866 | 0.3345 | 0.316
x1 = 0.8442 | 801.6 | 796.86 | 792.21 | 787.18 | 781.93 | 0.4675 | 0.353 | 0.3359 | 0.306 | 0.286
x1 = 0.9211 | 803.3 | 798.3 | 793.51 | 788.48 | 783.12 | 0.4293 | 0.3262 | 0.2972 | 0.2758 | 0.2706
x1 = 1 | 804.92 | 799.7 | 794.81 | 789.78 | 784.32 | – | 0.2828 | 0.2666 | 0.2601 | 0.2545
